Reference: patent publication US8853215B2, “Derivatives of N-acyl-N′-phenylpiperazine useful (inter alia) for the prophylaxis or treatment of diabetes” (Takeda Pharmaceutical Company Limited, priority 2009, dated 2014)

Tests used:
RBP4 = RBP4 (Mus musculus (Mouse), UniProt Q00724); assay: Single administration test in mice, plasma RBP4 by ELISA; type: in vivo; conditions: male C57BL/6J or ICR mice, 50 mg/kg oral single dose, mean±SD; for RBP4 (% of initial/Control) 0 hr: 0 hr (just before the administration); for RBP4 (% of initial/Control) 4 hr: 4 hr after administration; for RBP4 (% of initial/Control) 7 hr: 7 hr after administration; for RBP4 (% of initial/Control) 24 hr: 24 hr after administration
Description: The action of the compounds of the present invention to reduce plasma RBP4 level was evaluated using the animal model shown below.
Male C57BL/6J and ICR mice were purchased from Charles River (Japan) and maintained on a normal diet (CE2, CLAE Japan, Inc.) and tap water. Animals were housed in a temperature-controlled room adjusted to a 12-hour light/12-hour dark cycle beginning at 7:00 and 19:00, respectively. All procedures were conducted according to the experimental animal care use committee of Takeda Pharmaceutical Company.
Male 6-12-week-old C57BL/6J or ICR mice were housed individually and fed CE2 for 4-6 days. After acclimatization, mice were divided into groups based on their body weight. Compounds were suspended in 0.5% (w/v) methylcellulose in water and given orally to mice at a dose of 50 mg/10 mL/kg of body weight (three to five mice per group). Blood samples were obtained from orbital vein with sodium heparin as an anticoagulant at time 0 hr (just before the administration), 4 hr, 7 hr, and 24 hr after the administration, followed by plasma separation by centrifugation. Plasma RBP4 levels were measured by enzyme-linked immunosorbent assay described in the following section.
Plasma samples were analyzed in duplicate for RBP4 by an enzyme-linked immunosorbent assay. Mouse recombinant RBP4 (Takeda Pharmaceutical Company) was used as standards, and the assay range was 0.313-20 ng/ml. Samples were diluted 10,000-fold with phosphate-buffered saline (PBS) (Sigma) containing 10% (w/v) BlockAce (Dainippon Sumitomo Pharma Co., Ltd). Rabbit anti-RBP4 polyclonal antibody (100 μL/well of 50 μg/mL, Hokudo Co, Ltd) was incubated in a 96-well plate (Nalge Nunc International K.K.) for overnight at 4° C. Subsequently, the plates were washed with PBS-T (Wako Pure Chemical Industries, Ltd.) and blocked with PBS containing 25% BlockAce for 1 hr at room temperature. After another washing with PBS-T, samples and standards were applied to the well, and the plates were incubated for 2 hr at room temperature. After a washing the wells, peroxidase-labeled (Dojindo Laboratories) anti-RBP4 (100 μL/well) was added to the wells, and then the plates were incubated for 1 hr at room temperature. After a final washing with PBS-T, substrate solution 3,3,5,5-tetramethylbenzidine (Sigma) was added to the wells, and the plates were placed in the dark for 5-20 min at room temperature. The reaction was stopped with 0.5 M sulphuric acid and the optical density was measured with a spectrophotometer at 450 nm. The changes in plasma RBP4 levels were expressed as % of initial/Control. All data are presented as mean±SD.

human RBP4 = human RBP4 (Homo sapiens (Human), UniProt P02753); assay: Binding assay by Retinol-RBP4-TTR ELISA; conditions: for inhibition at 10 µM: at 10 μM compound, read-out: human RBP4 binding inhibitory activity(% at 10 μM); for IC50: retinol 50 nM, His-tagged human RBP4, biotinylated human TTR, read-out: human RBP4 binding inhibitory activity (IC50 nM)
Description: The action of the compound of the present invention to inhibit binding of RBP4 and retinol and TTR was evaluated using the Retinol-RBP4-TTR ELISA system shown below.
1F: Binding Assay by Retinol-RBP4-TTR ELISA
This ELISA system detects a complex of RBP4 and TTR based on a retinol-dependent binding of RBP4 to TTR.
His-tagged human RBP4 used was prepared in the above-mentioned 1C.
Biotinylate human TTR used was prepared in the above-mentioned 1E.
Streptavidin (20 μl) (10 μg/ml Streptavidin type II (Wako Pure Chemical Industries, Ltd.), 10 mM Tris-HCl (pH 7.5), 10 mM NaCl) was added to a 384 well black plate (Nunc MaxiSorp, Thermo Fisher Scientific Inc.), and the plate was subjected to centrifugation (1000 rpm, 1 min) and coated overnight at 4° C. The plate was washed twice with PBST (PBS, 0.05% Tween 20, 100 μl/well) and blocked with 25% Block Ace (Snow Brand Milk Products Co., Ltd., PBS, 100 μl/well). The plate was subjected to centrifugation (1000 rpm, 1 min) and incubated at room temperature for 4 hr or overnight at 4° C. The plate was washed twice with PBST (PBS, 0.05% Tween 20, 100 μl/well), and biotinylate human TTR (stock solution concentration 1.0 mg/ml) diluted 750-fold with PBST was added at 20 μl/well. The plate was subjected to centrifugation (1000 rpm, 1 min) and stood still at room temperature for 1.5 hr or overnight at 4° C. The plate was washed 3 times with PBST (100 μl/well), and His-tagged human RBP4 (stock solution concentration 0.96 mg/ml) diluted 4000-fold with a reaction buffer (50 mM Tris-HCl, 150 mM NaCl, 0.005% Tween 20, 1 mM DTT, 0.1% BSA) was added at 10 μl/well. The dilution series (8 doses from 10 mM, 200-fold concentration) of the compound was prepared with DMSO, and 1 μl of each was added to a reaction buffer (200 μl) containing retinol (50 nM) (Sigma-Aldrich Co.). A reaction buffer (200 μl) containing retinol and added with DMSO was used as a positive control, and reaction buffer (200 μl) free of retinol and added with DMSO was used as a negative control. Mixed solutions of retinol and the compound were added to the plate at 15 μl/well. The plate was stirred in a platemixer subjected to centrifugation (1000 rpm, 1 min) and reacted at room temperature for 2 hr. A 35% Block Ace solution diluted with the reaction buffer was added at 10 μl/well, centrifuged (1000 rpm, 1 min) and reacted at room temperature for 30 min. The plate was washed 3 times with PBST (100 μl/well) and SuperSignal ELISA Femto Maximum Sensitivity Substrate reagent (PIERCE, Thermo Fisher Scientific Inc.) was added at 30 μl/well, and the luminescence was measured by a platereader (Wallac).
The binding inhibitory activity of the compound was determined by 100×(positive control value-test compound value)/(positive control value-negative control value). The binding activity (IC50) was calculated from the binding inhibitory rate at each compound concentration using a graph drawing software, GraphPad Prism (GraphPad Software Inc.).

| RBP4 (% of initial/Control) 0 hr (RBP4) | RBP4 (% of initial/Control) 4 hr (RBP4) | RBP4 (% of initial/Control) 7 hr (RBP4) | RBP4 (% of initial/Control) 24 hr (RBP4) | inhibition at 10 µM (human RBP4) | IC50 (human RBP4) | SMILES |
| --- | --- | --- | --- | --- | --- | --- |
| 100.0 ± 36.4 % of initial/Control | 30.9 ± 2.7 % of initial/Control | 32.2 ± 2.2 % of initial/Control | 73.1 ± 25.6 % of initial/Control | 100% |  | CC(C)(C)c1ccccc1N1CCN(C(=O)c2ccc(OCC(=O)O)cc2)CC1 [Example 24, (4-{[4-(2-tert-Butylphenyl)piperazin-1-yl]carbonyl}phenoxy)acetic acid] |
| 100.0 ± 7.3 % of initial/Control | 45.0 ± 1.9 % of initial/Control | 57.6 ± 5.6 % of initial/Control | 75.8 ± 6.0 % of initial/Control | 100% |  | CC(C)(C)c1ccccc1N1CCN(C(=O)c2ccc(SCC(=O)O)nc2)CC1 [Example 25, [(5-{[4-(2-tert-Butylphenyl)piperazin-1-yl]carbonyl}pyridin-2-yl)sulfanyl]acetic acid] |
| 100.0 ± 29.7 % of initial/Control | 39.9 ± 3.4 % of initial/Control | 30.2 ± 1.3 % of initial/Control | 93.6 ± 15.1 % of initial/Control | 100% |  | CC(C)(C)c1ccccc1N1CCN(C(=O)CCC(=O)O)CC1 [Example 53, 4-(4-(2-tert-Butylphenyl)piperazin-1-yl)-4-oxobutanoic acid] |
| 100.0 ± 17.1 % of initial/Control | 51.2 ± 1.0 % of initial/Control | 56.7 ± 2.4 % of initial/Control | 120.9 ± 9.0 % of initial/Control | 100% | 150 nM | CC(C)(C)c1ccccc1N1CCN(C(=O)C2(C(=O)O)CC2)CC1 [Example 71, 1-{[4-(2-tert-Butylphenyl)piperazin-1-yl]carbonyl}cyclopropanecarboxylic acid] |
| 100.0 ± 13.6 % of initial/Control | 36.6 ± 1.0 % of initial/Control | 38.1 ± 1.3 % of initial/Control | 80.3 ± 18.4 % of initial/Control | 100% |  | CC(C)(C)c1ccccc1N1CCN(C(=O)C(=O)NCC(=O)O)CC1 [Example 87, N-{[4-(2-tert-Butylphenyl)piperazin-1-yl](oxo)acetyl}glycine] |
| 100.0 ± 21.7 % of initial/Control | 45.7 ± 0.8 % of initial/Control | 58.9 ± 5.1 % of initial/Control | 89.2 ± 11.6 % of initial/Control | 100% |  | CC(C)(C)c1ccccc1N1CCN(C(=O)Cn2cnnn2)CC1 [Example 94, 1-(2-tert-Butylphenyl)-4-(1H-tetrazol-1-ylacetyl)piperazine] |
| 100.0 ± 12.8 % of initial/Control | 70.1 ± 1.8 % of initial/Control | 67.0 ± 2.6 % of initial/Control | 123.3 ± 14.2 % of initial/Control | 100% |  | CC(C)(C)c1ccccc1N1CCN(C(=O)c2ncoc2CCC(=O)O)CC1 [Example 178, 3-(4-{[4-(2-tert-Butylphenyl)piperazin-1-yl]carbonyl}-1,3-oxazol-5-yl)propanoic acid] |

The next lines start with the molecule.

| SMILES | RBP4 (% of initial/Control) 0 hr (RBP4) | RBP4 (% of initial/Control) 4 hr (RBP4) | RBP4 (% of initial/Control) 7 hr (RBP4) | RBP4 (% of initial/Control) 24 hr (RBP4) | inhibition at 10 µM (human RBP4) | IC50 (human RBP4) |
| --- | --- | --- | --- | --- | --- | --- |
| CC(C)(C)c1ccccc1N1CCN(C(=O)C(=O)NS(=O)(=O)NCC2CC2)CC1 [Example 39, 2-[4-(2-tert-Butylphenyl)piperazin-1-yl]-N-[(cyclopropylmethyl)sulfamoyl]-2-oxoacetamide] | 100.0 ± 5.8 % of initial/Control | 37.1 ± 1.9 % of initial/Control | 45.1 ± 6.2 % of initial/Control | 86.6 ± 12.4 % of initial/Control | 97% | 430 nM |
| CC(C)(C)c1cc(Br)ccc1N1CCN(C(=O)C(=O)O)CC1 [Example 67, [4-(4-Bromo-2-tert-butylphenyl)piperazin-1-yl](oxo)acetic acid] | 100.0 ± 26.6 % of initial/Control | 44.8 ± 2.9 % of initial/Control | 40.3 ± 1.6 % of initial/Control | 94.9 ± 22.6 % of initial/Control | 100% |  |
| CC(C)(C)c1cc(Br)ccc1N1CCN(C(=O)CC(=O)O)CC1 [Example 69, 3-[4-(4-Bromo-2-tert-butylphenyl)piperazin-1-yl]-3-oxopropanoic acid] | 100.0 ± 13.8 % of initial/Control | 47.7 ± 2.7 % of initial/Control | 44.4 ± 0.7 % of initial/Control | 50.0 ± 2.4 % of initial/Control | 99% | 30 nM |
| Cc1ccc(N2CCN(C(=O)C(=O)O)CC2)c(C(C)(C)C)c1 [Example 82, [4-(2-tert-Butyl-4-methylphenyl)piperazin-1-yl](oxo)acetic acid] | 100.0 ± 12.5 % of initial/Control | 54.6 ± 4.1 % of initial/Control | 74.2 ± 15.5 % of initial/Control | 101.5 ± 9.7 % of initial/Control | 99% |  |
| CC(C)(C)c1ccccc1N1CCN(C(=O)C(=O)N2CCC(C(=O)O)CC2)CC1 [Example 89, 1-{[4-(2-tert-Butylphenyl)piperazin-1-yl](oxo)acetyl}piperidine-4-carboxylic acid] | 100.0 ± 34.2 % of initial/Control | 42.5 ± 6.0 % of initial/Control | 46.6 ± 4.3 % of initial/Control | 105.9 ± 27.6 % of initial/Control | 99% |  |
